Assay results published in patent US20190031717A1, “MULTI-FUNCTIONAL FUSION POLYPEPTIDE, PREPARATION METHOD THEREOF, AND APPLICATION OF SAME” (NANJING ANJI BIOLOGICAL TECHNOLOGY CO., LTD, priority 2016, published 2019).

Experiments:
Design in all cases: concentration or dose not given beside the values
[1] = system: Small Cell Lung Cancer; assay: MTT assay, lung cancer tumor cells; format: cell-based, human; conditions: 48 h, mean ± SD
[2] = system: Large cell lung cancer; assay: MTT assay, lung cancer tumor cells; format: cell-based, human; conditions: 48 h, mean ± SD
[3] = system: Staphylococcal fluid; assay: Mouse pneumonia model, bacterial; format: in vivo, BALB/C mice; conditions: mean ± SD
Experimental: The mouse pneumonia model was successfully established by the nose-drop method. To build the mouse pneumonia model, BALB/C mice with a body mass of 16-22 g were selected and anesthetized pneumonia chain was prepared after anesthesia with ether on day 0, day 1, and day 2. Staphylococcal fluid, adenovirus concentrate, Mycoplasma pneumoniae, Chlamydia pneumoniae, protozoa, and pneumonia fungi were slowly dripped into the nasal cavity of the mice, so that they enter the tracheobronchial. During the operation process, care was exercised to prevent bacterial fluid from flowing into the esophagus, which leads to inactivation the bacterial fluid. After successful model establishment, the polypeptides of the present invention were administered, and the results were shown in Table 5. […] The results were expressed in average value±standard deviation.

Row | Substance | tumor growth inhibition rate, MTT Assay [1] [%] | tumor growth inhibition rate, MTT Assay [2] [%] | Inhibitory Effects on Various Pulmonary Infections [3] [%]
1 | Arg-Gly-Asp-Gly-Gly-Gly-Gly-Pro-(D-Pyr)-(D-Cys)-Bip-Arg-Gly-Glu-Gly-Gly-Gly-Gly-Ile-Val-Arg-Arg-Ala-Asp-Arg-Ala-Ala-Val-Pro [Polypeptide III] | 74.83 ± 13.63 | 93.53 ± 17.04 | 47.07 ± 13.26
2 | Ile-Val-Arg-Arg-Ala-Asp-Arg-Ala-Ala-Val-Pro-Gly-Gly-Gly-Gly-Pro-(D-Pyr)-(D-Cys)-Bip-Arg-Gly-Glu-Gly-Gly-Gly-Gly-Arg-Gly-Asp [Polypeptide II] | 69.03 ± 12.72 | 86.28 ± 15.90 | 43.43 ± 12.38
3 | Arg-Gly-Asp-Gly-Gly-Gly-Gly-Ile-Val-Arg-Arg-Ala-Asp-Arg-Ala-Ala-Val-Pro-Gly-Gly-Gly-Gly-Pro-(D-Pyr)-(D-Cys)-Bip-Arg-Gly-Glu [Polypeptide IV] | 71.14 ± 17.19 | 88.92 ± 19.05 | 44.75 ± 13.08
4 | Pro-(D-Pyr)-(D-Cys)-Bip-Arg-Gly-Glu-Gly-Gly-Gly-Gly-Ile-Val-Arg-Arg-Ala-Asp-Arg-Ala-Ala-Val-Pro-Gly-Gly-Gly-Gly-Arg-Gly-Asp [Polypeptide I] | 52.70 ± 13.22 | 65.87 ± 14.65 | 33.15 ± 10.06
5 | Pro-(D-Pyr)-(D-Cys)-Bip-Arg-Gly-Glu-Gly-Gly-Gly-Gly-Arg-Gly-Asp-Gly-Gly-Gly-Gly-Ile-Val-Arg-Arg-Ala-Asp-Arg-Ala-Ala-Val-Pro [Polypeptide VI] | 63.23 ± 12.96 | 79.04 ± 14.36 | 39.78 ± 9.86
6 | Ile-Val-Arg-Arg-Ala-Asp-Arg-Ala-Ala-Val-Pro-Gly-Gly-Gly-Gly-Arg-Gly-Asp-Gly-Gly-Gly-Gly-Pro-(D-Pyr)-(D-Cys)-Bip-Arg-Gly-Glu [Polypeptide V] | 60.60 ± 14.68 | 75.74 ± 16.27 | 38.12 ± 11.17
